Source: patent publication US20140155389A1, “BICYCLIC INHIBITORS OF ALK” (ABBVIE INC., priority 2011, published 2014)

Biological target: T1, ALK (Homo sapiens, UniProt Q9UM73)
T1 construct: purchased Millipore
Assay: ALK kinase assay (HTRF)
Type: biochemical
Conditions: apparent Ki from IC50 by Cheng-Prusoff; ALK (Millipore) 3 nM or 4 nM, 50 μM ATP, 1 h at room temperature; read-out: HTRF_ALK Human - Ki

T1 sequence (Q9UM73 19-1620): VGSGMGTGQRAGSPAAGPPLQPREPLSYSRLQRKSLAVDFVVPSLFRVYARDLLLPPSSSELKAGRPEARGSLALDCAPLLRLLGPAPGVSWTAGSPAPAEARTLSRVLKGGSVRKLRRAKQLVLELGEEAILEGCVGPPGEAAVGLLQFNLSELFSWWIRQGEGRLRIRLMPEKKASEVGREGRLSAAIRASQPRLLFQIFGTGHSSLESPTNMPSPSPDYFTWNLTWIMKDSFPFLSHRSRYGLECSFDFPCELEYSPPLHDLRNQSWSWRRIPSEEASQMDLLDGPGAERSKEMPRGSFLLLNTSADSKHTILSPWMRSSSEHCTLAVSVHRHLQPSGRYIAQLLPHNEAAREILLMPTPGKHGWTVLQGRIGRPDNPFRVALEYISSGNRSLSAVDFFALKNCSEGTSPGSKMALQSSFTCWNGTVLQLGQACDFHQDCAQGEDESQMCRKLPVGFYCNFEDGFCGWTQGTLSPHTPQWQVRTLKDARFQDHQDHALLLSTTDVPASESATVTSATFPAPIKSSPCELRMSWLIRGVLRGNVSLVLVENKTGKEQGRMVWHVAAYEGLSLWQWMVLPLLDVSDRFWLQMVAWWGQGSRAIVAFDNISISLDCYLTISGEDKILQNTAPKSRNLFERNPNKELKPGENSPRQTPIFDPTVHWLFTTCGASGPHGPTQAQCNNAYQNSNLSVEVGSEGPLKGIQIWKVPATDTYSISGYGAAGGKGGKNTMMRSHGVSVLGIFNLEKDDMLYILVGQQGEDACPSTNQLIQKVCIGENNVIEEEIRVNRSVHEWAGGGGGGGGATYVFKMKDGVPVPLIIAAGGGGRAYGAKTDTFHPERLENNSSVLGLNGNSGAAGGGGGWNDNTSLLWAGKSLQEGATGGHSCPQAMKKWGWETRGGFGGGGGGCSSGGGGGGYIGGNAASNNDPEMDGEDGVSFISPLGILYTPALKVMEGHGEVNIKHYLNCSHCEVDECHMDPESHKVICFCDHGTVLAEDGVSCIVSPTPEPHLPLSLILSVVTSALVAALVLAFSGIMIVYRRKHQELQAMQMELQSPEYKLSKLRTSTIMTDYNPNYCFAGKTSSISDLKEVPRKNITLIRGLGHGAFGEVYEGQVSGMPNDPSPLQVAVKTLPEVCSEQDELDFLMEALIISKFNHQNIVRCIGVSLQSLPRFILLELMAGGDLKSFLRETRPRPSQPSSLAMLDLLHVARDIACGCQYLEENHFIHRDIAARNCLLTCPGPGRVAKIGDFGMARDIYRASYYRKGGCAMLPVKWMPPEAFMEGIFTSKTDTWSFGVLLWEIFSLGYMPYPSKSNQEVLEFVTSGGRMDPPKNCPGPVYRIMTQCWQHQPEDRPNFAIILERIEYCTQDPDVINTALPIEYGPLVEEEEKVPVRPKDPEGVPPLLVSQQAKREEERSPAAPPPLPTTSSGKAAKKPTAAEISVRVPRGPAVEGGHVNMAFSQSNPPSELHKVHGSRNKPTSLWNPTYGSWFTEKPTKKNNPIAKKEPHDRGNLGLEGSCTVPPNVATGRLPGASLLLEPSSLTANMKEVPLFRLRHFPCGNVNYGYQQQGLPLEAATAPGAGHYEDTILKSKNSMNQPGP

| Ki | Structure (SMILES) |
| --- | --- |
| > 470 nM | COc1cc(N2CCNCC2)ccc1Nc1nc(Oc2ccncc2Cl)cc2cn[nH]c(=O)c12 [Example 81, 7-[(3-chloropyridin-4-yl)oxy]-5-{[2-methoxy-4-(piperazin-1-yl)phenyl]amino}pyrido[3,4-d]pyridazin-4(3H)-one] |
| 3 nM | COc1cc(N2CCNCC2)ccc1Nc1nc(Nc2cc(F)ccc2Cl)cc2cn[nH]c(=O)c12 [Example 27, 7-[(2-chloro-5-fluorophenyl)amino]-5-{[2-methoxy-4-(piperazin-1-yl)phenyl]amino}pyrido[3,4-d]pyridazin-4(3H)-one] |
| 28 nM | COc1cc(N2CCNCC2)ccc1Nc1nc(-c2ccccc2)cc2cn[nH]c(=O)c12 [Example 41, 5-{[2-methoxy-4-(piperazin-1-yl)phenyl]amino}-7-phenylpyrido[3,4-d]pyridazin-4(3H)-one] |
| 4 nM | COc1cc(N2CCNCC2)ccc1Nc1nc(Oc2ccccc2F)cc2cnnc(O)c12 [Example 76, 7-(2-fluorophenoxy)-5-{[2-methoxy-4-(piperazin-1-yl)phenyl]amino}pyrido[3,4-d]pyridazin-4-ol] |
| > 470 nM | COc1cc(N2CCNCC2)ccc1Nc1nc(Oc2ccncc2F)cc2cnnc(O)c12 [Example 83, 7-[(3-fluoropyridin-4-yl)oxy]-5-{[2-methoxy-4-(piperazin-1-yl)phenyl]amino}pyrido[3,4-d]pyridazin-4-ol] |
| 4 nM | COc1c(Nc2nc(Cc3c(Cl)cccc3Cl)cc3cnnc(O)c23)ccc(N2CCNCC2)c1F [Example 59, 7-(2,6-dichlorobenzyl)-5-{[3-fluoro-2-methoxy-4-(piperazin-1-yl)phenyl]amino}pyrido[3,4-d]pyridazin-4-ol] |
| 5 nM | COc1cc(N2CCNCC2)ccc1Nc1nc(Oc2ccc(Cl)cc2Cl)cc2cn[nH]c(=O)c12 [Example 85, 7-(2,4-dichlorophenoxy)-5-{[2-methoxy-4-(piperazin-1-yl)phenyl]amino}pyrido[3,4-d]pyridazin-4(3H)-one] |
| 1 nM | COc1cc(N2CCNCC2)ccc1Nc1nc(Nc2c(F)ccc(Cl)c2Cl)cc2cn[nH]c(=O)c12 [Example 65, 7-[(2,3-dichloro-6-fluorophenyl)amino]-5-{[2-methoxy-4-(piperazin-1-yl)phenyl]amino}pyrido[3,4-d]pyridazin-4(3H)-one] |
| 4 nM | COc1cc(N2CCNCC2)ccc1Nc1nc(Nc2ccc(Cl)cc2Cl)cc2cnnc(O)c12 [Example 34, 7-[(2,4-dichlorophenyl)amino]-5-{[2-methoxy-4-(piperazin-1-yl)phenyl]amino}pyrido[3,4-d]pyridazin-4-ol] |
| 15 nM | O=c1[nH]ncc2cc(Oc3ccccc3Cl)nc(Nc3ccc(N4CCNCC4)cc3OC(F)F)c12 [Example 117, 7-(2-chlorophenoxy)-5-{[2-(difluoromethoxy)-4-(piperazin-1-yl)phenyl]amino}pyrido[3,4-d]pyridazin-4(3H)-one] |
| 9 nM | COc1cc(C2CCNCC2)ccc1Nc1nc(Oc2ccccc2Cl)cc2cnnc(O)c12 [Example 98, 7-(2-chlorophenoxy)-5-{[2-methoxy-4-(piperidin-4-yl)phenyl]amino}pyrido[3,4-d]pyridazin-4-ol] |
| 16 nM | COc1cc(N2CCNCC2)ccc1Nc1nc(NCc2ccco2)cc2cnnc(O)c12 [Example 38, 7-[(furan-2-ylmethyl)amino]-5-{[2-methoxy-4-(piperazin-1-yl)phenyl]amino}pyrido[3,4-d]pyridazin-4-ol] |
| 15 nM | COc1cc(N2CCNCC2)ccc1Nc1nc(Oc2ccccc2Cl)cc2c(C)nnc(O)c12 [Example 119, 7-(2-chlorophenoxy)-5-{[2-methoxy-4-(piperazin-1-yl)phenyl]amino}-1-methylpyrido[3,4-d]pyridazin-4-ol] |

More lines, now with the values behind:

| Structure (SMILES) | Ki |
| --- | --- |
| O=c1[nH]ncc2cc(N3CC(O)C3)nc(Nc3ccc(CN4CCCC4)cc3Cl)c12 [Example 97, 5-{[2-chloro-4-(pyrrolidin-1-ylmethyl)phenyl]amino}-7-(3-hydroxyazetidin-1-yl)pyrido[3,4-d]pyridazin-4(3H)-one] | 74 nM |
| COc1cc(N2CCNCC2)ccc1Nc1cc(Cc2c(Cl)cccc2Cl)nc2cn[nH]c(=O)c12 [Example 70, 2-(2,6-dichlorobenzyl)-4-{[2-methoxy-4-(piperazin-1-yl)phenyl]amino}pyrido[2,3-d]pyridazin-5(6H)-one] | 1 nM |
| COc1cc(N2CCNCC2)ccc1Nc1cc(Oc2ccccc2Cl)nc2cn[nH]c(=O)c12 [Example 89, 2-(2-chlorophenoxy)-4-{[2-methoxy-4-(piperazin-1-yl)phenyl]amino}pyrido[2,3-d]pyridazin-5(6H)-one] | 15 nM |
| COc1cc(CCN2CCCC2)ccc1Nc1nc(Cc2c(Cl)cccc2Cl)cc2cn[nH]c(=O)c12 [Example 17, 7-(2,6-dichlorobenzyl)-5-({2-methoxy-4-[2-(pyrrolidin-1-yl)ethyl]phenyl}amino)pyrido[3,4-d]pyridazin-4(3H)-one] | 6 nM |
| COc1cc(N2CCNCC2)ccc1Nc1cc(Nc2c(Cl)cccc2Cl)nc2cn[nH]c(=O)c12 [Example 68, 2-[(2,6-dichlorophenyl)amino]-4-{[2-methoxy-4-(piperazin-1-yl)phenyl]amino}pyrido[2,3-d]pyridazin-5(6H)-one] | 2 nM |
| O=c1[nH]ncc2cc(Cc3c(Cl)cccc3Cl)nc(Nc3cc(F)c(N4CCNCC4)cc3F)c12 [Example 20, 7-(2,6-dichlorobenzyl)-5-{[2,5-difluoro-4-(piperazin-1-yl)phenyl]amino}pyrido[3,4-d]pyridazin-4(3H)-one] | 3 nM |
| COc1cc(C2CCNCC2)ccc1Nc1cc(Cc2c(F)cccc2Cl)nc2cn[nH]c(=O)c12 [Example 112, 2-(2-chloro-6-fluorobenzyl)-4-{[2-methoxy-4-(piperidin-4-yl)phenyl]amino}pyrido[2,3-d]pyridazin-5(6H)-one] | 4 nM |
| COc1cc(N2CCNCC2)c(C)cc1Nc1nc(Cc2c(Cl)cccc2Cl)cc2cn[nH]c(=O)c12 [Example 72, 7-(2,6-dichlorobenzyl)-5-{[2-methoxy-5-methyl-4-(piperazin-1-yl)phenyl]amino}pyrido[3,4-d]pyridazin-4(3H)-one] | 12 nM |
| COc1cc(N2CCNCC2)ccc1Nc1nc(Nc2c(C)cccc2C)cc2cn[nH]c(=O)c12 [Example 49, 7-[(2,6-dimethylphenyl)amino]-5-{[2-methoxy-4-(piperazin-1-yl)phenyl]amino}pyrido[3,4-d]pyridazin-4(3H)-one] | 1 nM |
| COc1cc2c(cc1Nc1nc(Cc3c(Cl)cccc3Cl)cc3cn[nH]c(=O)c13)CCNC2 [Example 88, 7-(2,6-dichlorobenzyl)-5-[(7-methoxy-1,2,3,4-tetrahydroisoquinolin-6-yl)amino]pyrido[3,4-d]pyridazin-4(3H)-one] | 4 nM |
| COc1cc(N2CCNCC2)ccc1Nc1nc(Nc2ccc(F)c(F)c2F)cc2cn[nH]c(=O)c12 [Example 53, 5-{[2-methoxy-4-(piperazin-1-yl)phenyl]amino}-7-[(2,3,4-trifluorophenyl)amino]pyrido[3,4-d]pyridazin-4(3H)-one] | 4 nM |
| Oc1nncc2cc(Cc3c(Cl)cccc3Cl)nc(Nc3ccc(N4CCNCC4)cc3)c12 [Example 5, 7-(2,6-dichlorobenzyl)-5-{[4-(piperazin-1-yl)phenyl]amino}pyrido[3,4-d]pyridazin-4-ol] | 1 nM |
| COc1cc(N2CCNCC2)ccc1Nc1nc(NC2CCN(C)CC2)cc2cn[nH]c(=O)c12 [Example 58, 5-{[2-methoxy-4-(piperazin-1-yl)phenyl]amino}-7-[(1-methylpiperidin-4-yl)amino]pyrido[3,4-d]pyridazin-4(3H)-one] | 4 nM |
| COc1cc(N2CCNCC2)ccc1Nc1nc(Nc2ccc(Cl)c(Cl)c2Cl)cc2cn[nH]c(=O)c12 [Example 77, 5-{[2-methoxy-4-(piperazin-1-yl)phenyl]amino}-7-[(2,3,4-trichlorophenyl)amino]pyrido[3,4-d]pyridazin-4(3H)-one] | 4 nM |
| Cc1cc(Nc2nc(Cc3c(Cl)cccc3Cl)cc3cn[nH]c(=O)c23)c(F)cc1N1CCNCC1 [Example 73, 7-(2,6-dichlorobenzyl)-5-{[2-fluoro-5-methyl-4-(piperazin-1-yl)phenyl]amino}pyrido[3,4-d]pyridazin-4(3H)-one] | 1 nM |
| COc1cc(C2CCNCC2)ccc1Nc1cc(Cc2cc(F)ccc2F)nc2cn[nH]c(=O)c12 [Example 110, 2-(2,5-difluorobenzyl)-4-{[2-methoxy-4-(piperidin-4-yl)phenyl]amino}pyrido[2,3-d]pyridazin-5(6H)-one] | 16 nM |
| O=c1[nH]ncc2cc(Cc3c(Cl)cccc3Cl)nc(Nc3ccc(N4CCNCC4)cc3Br)c12 [Example 61, 5-{[2-bromo-4-(piperazin-1-yl)phenyl]amino}-7-(2,6-dichlorobenzyl)pyrido[3,4-d]pyridazin-4(3H)-one] | 2 nM |
| COc1cc(C2CCNCC2)ccc1Nc1cc(Cc2ccccc2Cl)nc2cn[nH]c(=O)c12 [Example 100, 2-(2-chlorobenzyl)-4-{[2-methoxy-4-(piperidin-4-yl)phenyl]amino}pyrido[2,3-d]pyridazin-5(6H)-one] | 4 nM |
| COc1cc(N2CCNCC2)ccc1Nc1nc(NCc2ccccc2)cc2cn[nH]c(=O)c12 [Example 40, 7-(benzylamino)-5-{[2-methoxy-4-(piperazin-1-yl)phenyl]amino}pyrido[3,4-d]pyridazin-4(3H)-one] | 36 nM |
| COc1cc(N2CCN(C3CCCCC3)CC2)ccc1Nc1nc(Cc2c(Cl)cccc2Cl)cc2cn[nH]c(=O)c12 [Example 8, 5-{[4-(4-cyclohexylpiperazin-1-yl)-2-methoxyphenyl]amino}-7-(2,6-dichlorobenzyl)pyrido[3,4-d]pyridazin-4(3H)-one] | > 470 nM |
| COc1cc(N2CCNCC2)ccc1Nc1nc(Nc2c(Cl)cncc2Cl)cc2cn[nH]c(=O)c12 [Example 33, 7-[(3,5-dichloropyridin-4-yl)amino]-5-{[2-methoxy-4-(piperazin-1-yl)phenyl]amino}pyrido[3,4-d]pyridazin-4(3H)-one] | 0.2 nM |
| COc1cc(N2CCN(C(=O)CC(C)C)CC2)ccc1Nc1nc(Cc2c(Cl)cccc2Cl)cc2cn[nH]c(=O)c12 [Example 19, 7-(2,6-dichlorobenzyl)-5-({2-methoxy-4-[4-(3-methylbutanoyl)piperazin-1-yl]phenyl}amino)pyrido[3,4-d]pyridazin-4(3H)-one] | > 4700 nM |
